In US11674967B2, “Method of identifying potential inhibitors of APO TNFα trimers” (UCB BIOPHARMA SRL, priority 2015, dated 2023):

Tests used:
[1] = target: TNFα (Homo sapiens, UniProt P01375); experiment: Monomer exchange mass spectrometry, compound pre-incubated with h-TNFα; format: binding; parameters: made in house; details: 1:1 complex mixed with m-TNFα, 18 hours
Experimental: Human and mouse homotrimers of TNFα (H3 and M3 respectively) were incubated together and aliquots of the solution monitored by mass spectrometry appearance of the cross species heterotrimers. The mass spectrometric analysis confirmed that monomer exchange between native TNFα trimers was able to occur in solution. The exchange rate was slow and was monitored over a course of 4 hours before full equilibration was achieved (data not shown). The mechanism is unknown, although is it unlikely to involve formation of the dimeric forms as none of these were observed. Monomer exchange is likely to be occurring between pure human and mouse trimers, the mixing of mouse and human trimers simply makes this exchange visible by mass spectrometry.
In a second series of experiments an excess of the compound of formula (3) was incubated with Human TNFα, the excess compound of formula (3) was then removed. Mass Spectral analysis confirmed that a 1:1 complex had been formed between the compound of formula (3) and h-TNFα. Mouse TNFα was now added to this sample which was then subjected to mass spectral analysis over a number of hours. After 18 hours there was no observed change in the composition of the sample. […] In addition, there was no evidence of formation of the M3L species and no evidence of formation of the unligated H3 species. […]

[2] = target: T1, human TNFα trimer (Homo sapiens, UniProt P01375); experiment: RMSD of crystal structure of compound-bound TNFα trimer to Reference Structure Compound 34; details: Cα atoms of β-sheet residues, all three subunits, PyMOL
T1 construct: His6Smt-tag (N, cleaved yes); made in house; host or cells: E. coli (vector pEMB54)
Experimental: Cells were pre-cultured at 37° C. in rich media, induced with the addition of 0.1% arabinose and allowed to express overnight at 25° C. in vector pEMB54. This vector introduces a cleavable N-terminal His6Smt-tag. The cells were lysed and purified by Ni-NTA chelate chromatography. The fusion protein was eluted with buffer containing imidazole and cleaved by the addition of protease. The final cleaved TNFα protein was purified by a subtractive Ni chelate chromatography step to remove the fusion tag and further purified by size exclusion chromatography to remove the remaining impurities. The final TNFα product was typically concentrated to 20.0 mg/ml and flash frozen in liquid nitrogen.
Purified human TNF[…] (20.0 mg/ml, VC 2043) was diluted to 4-7 mg/ml in 10 mM HEPES pH 7.5, 150 mM NaCl buffer followed by overnight incubation at 4° C. with 0.3-0.5 mM compound (1-2 molar excess). The TNF[…] compound complexes were crystallized by sitting drop vapor diffusion by mixing 0.5 μl of complex with 0.5 μl of 21.44% PEG 3350, 100 mM Tris, pH 9.0 (UCB1474433); or 22.0% PEG 3350, 100 mM glycine, 100 mM Tris, pH 8.5 (UCB1480595); or 25.6% PEG 3350, 100 mM Tris, pH 8.3, 3% xylitol (UCB5143079) or other formulation with varying precipitant concentration or additives over 100 μl of the same crystallization solution. Other formulations for other compounds include a range of PEG 3350 of 8-28%. Other PEG-like additives include PEG 1000 (8-18%) or PEG 2000 (10-13%). Other additives include MPD (5-13%) or 200 mM NaCl. Other buffers include 100 mM Hepes (pH 7-8), 100 mM Tris or bis-Tris (pH 6.7-9.0). Other non-PEG 3350 crystallization solutions consist of PEG 2000 (14-19%), 100 mM Hepes, pH 8, 25 mM arginine; or 17% PEG 10000, 200 mM ammonium acetate, 100 mM bis-Tris, pH 5.5; or 30% PEG 2000 MME, 100 mM sodium acetate, 100 mM Mes, pH 6.5.
Crystals were briefly soaked in ethylene glycol and/or vitrified directly in liquid nitrogen for data collection.
X-ray diffraction data were collected from a synchrotron source at a wavelength, most frequently, of 0.976484 Å and recorded on CCD detector. […] The structure of the human TNF[…] (VC 2043) complexed with compound was solved by molecular replacement using Phaser with input model of 1TNF. […] Iterative manual model building using Coot (Emsley and Cowtan, 2004) and Refmac (Murshudov et al., 1997) continued until R and Rfree converged. […] The resolution of the structures was most frequently around 2.15 Å.
Root mean squared deviation (RMSD) calculations were carried out to ascertain the distance of each of the crystal structures of distorted TNFα trimer to a reference structure.
RMSD calculations were done using the program PyMOL (www.pymol.org). In this example version 1.7. was used. The cmd.rms PyMOL command was used with defined pairs of atoms. The atoms used were the backbone Ca's of certain residues within the β-strands of TNFα. The residue numbers used are shown below:
These residue numbers are those within the published structure of TNFα with PDB code 1A8M and within the distorted TNFα trimer structures of this invention. The residue numbers are also according to the sequence of SEQ ID NO:36. The residues in each of the three chains with the TNFα structures, (labelled A, B, and C according to our instructions) were used.
The command cmd.rms was used with the following arguments:
rms=cmd.rms(“(moving)”, “(target)”, matchmaker=4, quiet=0, cycles=0)
where “(moving)” is the selection of atoms in a given TNFα structure and “(target)” is the selection of equivalent atoms within the reference structure.
The RMSD was calculated for each structure against all others. The “representative structure” or “Reference Structure” was chosen to be the one with the lowest sum RMSD to all others—the structure “Compound 34” or “Compound34.pdb”.
Reference Structure (Compound 34) and Query Structure (Compound 64) were overlaid (see FIG. 17 with Reference Structure emboldened) by: • 1. […]

[3] = target: T2, Mouse TNFα (Mus musculus, UniProt P06804); experiment: Monomer exchange mass spectrometry, compound pre-incubated with m-TNFα; format: binding; details: 1:1 complex mixed with h-TNFα
T2 construct: made in house
T2 sequence (P06804 80-235 limits assumed): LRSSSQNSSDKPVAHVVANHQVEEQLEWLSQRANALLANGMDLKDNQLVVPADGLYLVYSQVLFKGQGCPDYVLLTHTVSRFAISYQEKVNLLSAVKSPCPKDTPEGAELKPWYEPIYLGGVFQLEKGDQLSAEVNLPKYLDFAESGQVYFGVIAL
Experimental: The experiment was then repeated in reverse. Excess compound of formula 3 was incubated with Mouse TNFα, the excess compound of formula (3) was then removed. Mass Spectral analysis confirmed that a 1:1 complex had been formed between the compound of formula (3) and m-TNFα. Human TNFα was now added to this sample which was then subjected to mass spectral analysis over a number of hours. […] In addition there was evidence of formation of the ligated human homotrimer (H3L), the unligated mouse homotrimer (M3) and for unbound compound of formula (3) (L). […] Once this complex (M3L) has dissociated, monomer subunit exchange between the H3 and M3 species proceeds and the liberated ligand is then able to form complexes with all 4 trimer species present in solution.

T1 sequence (P01375 with tags, fused parts or gaps): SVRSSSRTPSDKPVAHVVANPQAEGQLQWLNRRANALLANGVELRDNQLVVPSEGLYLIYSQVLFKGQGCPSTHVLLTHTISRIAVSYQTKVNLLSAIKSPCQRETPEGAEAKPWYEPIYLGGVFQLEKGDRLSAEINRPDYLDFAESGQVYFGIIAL
Sequence of TNFα (P01375 77-233 limits assumed): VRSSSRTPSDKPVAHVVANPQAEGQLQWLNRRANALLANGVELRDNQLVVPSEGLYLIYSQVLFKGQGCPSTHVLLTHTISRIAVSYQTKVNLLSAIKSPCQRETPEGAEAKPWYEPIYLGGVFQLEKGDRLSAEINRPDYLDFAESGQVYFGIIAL

Compound	off-rate when complexed with h-TNFα [1]	RMSD (Å) with Compound 34 [2]	off-rate when complexed with m-TNFα [3]
Cc1ccc(C)c(Cn2c(C(O)c3ccncc3)nc3ccc(-c4cnn(C)c4)cc32)c1 (stereo not drawn) [Compound 15]	no measurable off-rate	0.24 Å	no measurable off-rate
Cc1ccc(C)c(Cn2c(C(O)c3ccncc3)nc3ccccc32)c1 (stereo not drawn) [Compound 3]	no measurable off-rate	0.33 Å	measurable off-rate
